# Reference: patent US11046699B2, “Pyrazolo-pyrimidin-amino-cycloalkyl compounds and their therapeutic uses” (RAPT THERAPEUTICS, INC., priority 2018, dated 2021)
# Biological target: GCN2 (Homo sapiens, UniProt Q9P2K8)
# Experiment: GCN2 enzymatic endpoint assay: phosphorylation of GFP-eIF2α measured by TR-FRET (Lanthascreen)
# Assay type: biochemical
# Settings: tested as described in Example 77; compound and/or hydrochloride, dihydrochloride or trifluoroacetic acid salt; read-out: IC 50 Activity
# How it was run: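 Endpoint kinase reaction with 2 μM ATP and 80 nM GFP-labelled eIF2α substrate, run at room temperature for 90 min, then stopped with EDTA. Phospho-substrate detected by terbium-antibody TR-FRET, activity taken as the 520/495 nm emission ratio.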
# Chain of GCN2 (Q9P2K8 whole entry): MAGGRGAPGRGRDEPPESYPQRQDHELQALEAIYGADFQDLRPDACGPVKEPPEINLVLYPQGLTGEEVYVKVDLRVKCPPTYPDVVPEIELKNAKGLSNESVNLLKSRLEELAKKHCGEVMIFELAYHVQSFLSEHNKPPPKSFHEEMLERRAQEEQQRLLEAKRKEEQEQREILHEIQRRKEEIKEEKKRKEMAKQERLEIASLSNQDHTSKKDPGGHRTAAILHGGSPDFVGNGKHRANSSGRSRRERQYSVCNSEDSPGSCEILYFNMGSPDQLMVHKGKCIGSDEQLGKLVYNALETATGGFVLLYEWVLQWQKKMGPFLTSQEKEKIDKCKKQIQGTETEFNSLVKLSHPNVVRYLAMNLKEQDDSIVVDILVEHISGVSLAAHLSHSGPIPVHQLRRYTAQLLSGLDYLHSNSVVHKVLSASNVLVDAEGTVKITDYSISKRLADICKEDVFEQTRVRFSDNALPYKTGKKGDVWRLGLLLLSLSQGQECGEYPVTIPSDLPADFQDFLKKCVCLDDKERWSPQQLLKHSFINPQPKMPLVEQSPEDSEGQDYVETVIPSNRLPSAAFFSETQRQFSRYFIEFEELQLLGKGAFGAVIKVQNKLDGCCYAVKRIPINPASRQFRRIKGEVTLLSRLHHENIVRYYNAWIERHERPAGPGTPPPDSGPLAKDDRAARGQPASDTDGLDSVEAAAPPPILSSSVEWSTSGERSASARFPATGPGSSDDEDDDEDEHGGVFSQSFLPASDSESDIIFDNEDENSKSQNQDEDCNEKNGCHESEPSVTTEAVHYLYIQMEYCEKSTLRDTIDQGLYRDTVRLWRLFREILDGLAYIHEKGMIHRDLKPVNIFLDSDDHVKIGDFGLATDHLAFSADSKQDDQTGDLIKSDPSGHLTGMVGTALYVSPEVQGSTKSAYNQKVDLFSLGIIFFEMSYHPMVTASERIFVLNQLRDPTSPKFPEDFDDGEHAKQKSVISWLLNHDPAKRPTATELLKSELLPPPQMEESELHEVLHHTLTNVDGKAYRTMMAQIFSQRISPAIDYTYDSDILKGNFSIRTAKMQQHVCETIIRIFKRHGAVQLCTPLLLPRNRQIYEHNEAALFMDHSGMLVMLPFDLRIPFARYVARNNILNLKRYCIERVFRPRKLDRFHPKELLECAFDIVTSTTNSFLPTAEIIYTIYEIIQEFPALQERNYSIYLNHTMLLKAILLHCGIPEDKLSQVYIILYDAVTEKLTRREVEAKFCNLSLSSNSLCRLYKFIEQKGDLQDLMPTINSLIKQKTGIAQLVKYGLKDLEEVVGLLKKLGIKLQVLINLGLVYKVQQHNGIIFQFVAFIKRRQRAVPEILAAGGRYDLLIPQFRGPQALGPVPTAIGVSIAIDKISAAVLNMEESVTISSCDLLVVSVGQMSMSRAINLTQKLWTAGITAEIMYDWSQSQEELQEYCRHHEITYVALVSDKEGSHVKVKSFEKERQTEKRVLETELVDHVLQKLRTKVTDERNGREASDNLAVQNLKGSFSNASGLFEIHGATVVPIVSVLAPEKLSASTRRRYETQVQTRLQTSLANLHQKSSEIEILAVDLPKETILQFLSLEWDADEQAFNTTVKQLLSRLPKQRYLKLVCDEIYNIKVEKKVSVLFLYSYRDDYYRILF
row,IC50 [nM],SMILES
1,25 to 200,"CNC(=O)[C@]1(C)CC[C@@H](Nc2ncc3c(Br)nn(-c4ccc5c(c4)OCC(=O)N5CC#N)c3n2)C1 [(1R,3R)-3-[[3-bromo-1-[4-(cyanomethyl)-3-oxo-1,4-benzoxazin-7-yl]pyrazolo[3,4-d]pyrimidin-6-yl]amino]-N,1-dimethyl-cyclopentanecarboxamide]"
2,25 to 200,"CNC(=O)[C@]1(C)CC[C@@H](Nc2ncc3c(Br)nn(-c4ccc(C(=O)c5ccno5)cc4)c3n2)C1 [(1R,3R)-3-[[3-bromo-1-[4-(isoxazole-5-carbonyl)phenyl]pyrazolo[3,4-d]pyrimidin-6-yl]amino]-N,1-dimethyl-cyclopentanecarboxamide]"
3,25 to 200,"CNC(=O)[C@@H]1CC[C@@H](Nc2ncc3c(Br)nn(-c4ccc(-c5cnn(CCOC)c5)cc4)c3n2)C1 [(1R,3R)-3-[[3-bromo-1-[4-[1-(2-methoxy-ethyl)pyrazol-4-yl]phenyl]pyrazolo[3,4-d]pyrimidin-6-yl]amino]-N-methyl-cyclopentanecarboxamide]"
4,25 to 200,"CNC(=O)[C@]1(C)CC[C@@H](Nc2ncc3c(Br)nn(-c4ccc(-c5nnc(C(C)(C)O)o5)cc4)c3n2)C1 [(1R,3R)-3-[[3-bromo-1-[4-[5-(1-hydroxy-1-methyl-ethyl)-1,3,4-oxadiazol-2-yl]phenyl]pyrazolo[3,4-d]pyrimidin-6-yl]amino]-N,1-dimethyl-cyclopentanecarboxamide]"
5,25 to 200,"CNC(=O)[C@]1(C)CC[C@@H](Nc2ncc3c(Br)nn(-c4ccc(-c5nnc(C(C)O)o5)cc4)c3n2)C1 (stereo partly drawn) [(1R,3R)-3-[[3-bromo-1-[4-[5-(1-hydroxy-ethyl)-1,3,4-oxadiazol-2-yl]phenyl]pyrazolo [3,4-d]pyrimidin-6-yl]amino]-N,1-dimethyl-cyclopentanecarboxamide]"
6,< 25,"CNC(=O)[C@]1(C)CC[C@@H](Nc2ncc3c(Br)nn(-c4ccc(-c5nnc(C(C)CC#N)o5)cc4)c3n2)C1 (stereo partly drawn) [(1R,3R)-3-[[3-bromo-1-[4-[5-(2-cyano-1-methyl-ethyl)-1,3,4-oxadiazol-2-yl]phenyl]pyrazolo[3,4-d]pyrimidin-6-yl]amino]-N,1-dimethyl-cyclopentanecarboxamide]"
7,< 25,"CNC(=O)[C@]1(C)CC[C@@H](Nc2ncc3c(Br)nn(-c4ccc(-c5nnc(C(C)CO)o5)cc4)c3n2)C1 (stereo partly drawn) [(1R,3R)-3-[[3-bromo-1-[4-[5-(2-hydroxy-1-methyl-ethyl)-1,3,4-oxadiazol-2-yl]phenyl]pyrazolo[3,4-d]pyrimidin-6-yl]amino]-N,1-dimethyl-cyclopentane-carboxamide]"
8,25 to 200,"CNC(=O)[C@]1(C)CC[C@@H](Nc2ncc3c(Br)nn(-c4ccc(-c5nnc(CC(C)O)o5)cc4)c3n2)C1 (stereo partly drawn) [(1R,3R)-3-[[3-bromo-1-[4-[5-(2-hydroxy-propyl)-1,3,4-oxadiazol-2-yl]phenyl]pyrazolo [3,4-d]pyrimidin-6-yl]amino]-N,1-dimethyl-cyclopentanecarboxamide]"
9,< 25,"CNC(=O)[C@]1(C)CC[C@@H](Nc2ncc3c(Br)nn(-c4ccc(-c5nnc(CCOC)o5)cc4)c3n2)C1 [(1R,3R)-3-[[3-bromo-1-[4-[5-(2-methoxy-ethyl)-1,3,4-oxadiazol-2-yl]phenyl]pyrazolo [3,4-d]pyrimidin-6-yl]amino]-N,1-dimethyl-cyclopentanecarboxamide]"
10,25 to 200,"CNC(=O)[C@]1(C)CC[C@@H](Nc2ncc3c(Br)nn(-c4ccc(-c5nnc(C(F)F)o5)cc4)c3n2)C1 [(1R,3R)-3-[[3-bromo-1-[4-[5-(difluoro-methyl)-1,3,4-oxadiazol-2-yl]phenyl]pyrazolo[3,4-d]pyrimidin-6-yl]amino]-N,1-dimethyl-cyclopentanecarboxamide]"
11,25 to 200,"CNC(=O)[C@]1(C)CC[C@@H](Nc2ncc3c(Br)nn(-c4ccc(-c5nnc(COC)o5)cc4)c3n2)C1 [(1R,3R)-3-[[3-bromo-1-[4-[5-(methoxy-methyl)-1,3,4-oxadiazol-2-yl]phenyl]pyrazolo [3,4-d]pyrimidin-6-yl]amino]-N,1-dimethyl-cyclopentanecarboxamide]"
12,25 to 200,"CNC(=O)[C@]1(C)CC[C@@H](Nc2ncc3c(Br)nn(-c4ccc(-c5nnc(COC)s5)cc4)c3n2)C1 [(1R,3R)-3-[[3-bromo-1-[4-[5-(methoxy-methyl)-1,3,4-thiadiazol-2-yl]phenyl]pyrazolo[3,4-d]pyrimidin-6-yl]amino]-N,1-dimethyl-cyclopentanecarboxamide]"
13,25 to 200,"CNC(=O)[C@]1(C)CC[C@@H](Nc2ncc3c(Br)nn(-c4ccc(-c5nnc(C(=O)N6CCOCC6)s5)cc4)c3n2)C1 [(1R,3R)-3-[[3-bromo-1-[4-[5-(morpholine-4-carbonyl)-1,3,4-thiadiazol-2-yl]phenyl]pyrazolo[3,4-d]pyrimidin-6-yl]amino]-N,1-dimethyl-cyclopentanecarboxamide]"
14,25 to 200,"CNC(=O)[C@]1(C)CC[C@@H](Nc2ncc3c(Br)nn(-c4ccc(-c5nnc(C(=O)N6CCNCC6)s5)cc4)c3n2)C1 [(1R,3R)-3-[[3-bromo-1-[4-[5-(piperazine-1-carbonyl)-1,3,4-thiadiazol-2-yl]phenyl]pyrazolo[3,4-d]pyrimidin-6-yl]amino]-N,1-dimethyl-cyclopentanecarboxamide]"
15,25 to 200,"CNC(=O)[C@]1(C)CC[C@@H](Nc2ncc3c(Br)nn(-c4ccc(C#N)c(OCCO)c4)c3n2)C1 [(1R,3R)-3-[[3-bromo-1-[4-cyano-3-(2-hydroxyethoxy)phenyl]pyrazolo[3,4-d]pyrimidin-6-yl]amino]-N,1-dimethyl-cyclopentanecarboxamide]"
16,25 to 200,"CNC(=O)[C@]1(C)CC[C@@H](Nc2ncc3c(Br)nn(-c4ccc(C#N)c(OCC(C)O)c4)c3n2)C1 (stereo partly drawn) [(1R,3R)-3-[[3-bromo-1-[4-cyano-3-(2-hydroxypropoxy)phenyl]pyrazolo [3,4-d]pyrimidin-6-yl]amino]-N,1-dimethyl-cyclopentanecarboxamide]"
17,25 to 200,"CNC(=O)[C@]1(C)CC[C@@H](Nc2ncc3c(Br)nn(-c4ccc(C#N)c(OCCOC)c4)c3n2)C1 [(1R,3R)-3-[[3-bromo-1-[4-cyano-3-(2-methoxyethoxy)phenyl]pyrazolo[3,4-d]pyrimidin-6-yl]amino]-N,1-dimethyl-cyclopentanecarboxamide]"
18,25 to 200,"CNC(=O)[C@]1(C)CC[C@@H](Nc2ncc3c(Br)nn(-c4ccc(C#N)c(CO)c4)c3n2)C1 [(1R,3R)-3-[[3-bromo-1-[4-cyano-3-(hydroxymethyl)phenyl]pyrazolo[3,4-d]pyrimidin-6-yl]amino]-N,1-dimethyl-cyclopentanecarboxamide]"
19,25 to 200,"CNC(=O)[C@]1(C)CC[C@@H](Nc2ncc3c(Br)nn(-c4ccc(C#N)c(CNS(C)(=O)=O)c4)c3n2)C1 [(1R,3R)-3-[[3-bromo-1-[4-cyano-3-(methanesulfonamidomethyl)phenyl]pyrazolo[3,4-d]pyrimidin-6-yl]amino]-N,1-dimethyl-cyclopentanecarboxamide]"
20,25 to 200,"CNC(=O)[C@]1(C)CC[C@@H](Nc2ncc3c(Br)nn(-c4ccc(C#N)c(OCC5(F)CNC5)c4)c3n2)C1 [(1R,3R)-3-[[3-bromo-1-[4-cyano-3-[(3-fluoroazetidin-3-yl)methoxy]phenyl]pyrazolo[3,4-d]pyrimidin-6-yl]amino]-N,1-dimethyl-cyclopentanecarboxamide]"
21,25 to 200,"CNC(=O)[C@]1(C)CC[C@@H](Nc2ncc3c(Br)nn(-c4ccc(-c5ncco5)c(C5CCCNC5)c4)c3n2)C1 (stereo partly drawn) [(1R,3R)-3-[[3-bromo-1-[4-oxazol-2-yl-3-(3-piperidyl)phenyl]pyrazolo[3,4-d]pyrimidin-6-yl]amino]-N,1-dimethyl-cyclopentanecarboxamide]"
22,25 to 200,"CNC(=O)[C@]1(C)CC[C@@H](Nc2ncc3c(Br)nn(-c4ccc(-c5ncco5)c(C5CCNCC5)c4)c3n2)C1 [(1R,3R)-3-[[3-bromo-1-[4-oxazol-2-yl-3-(4-piperidyl)phenyl]pyrazolo[3,4-d]pyrimidin-6-yl]amino]-N,1-dimethyl-cyclopentanecarboxamide]"
23,25 to 200,"CNC(=O)[C@]1(C)CC[C@@H](Nc2ncc3c(Br)nn(-c4ccc(-c5ncco5)c([C@H]5CCNC5)c4)c3n2)C1 [(1R,3R)-3-[[3-bromo-1-[4-oxazol-2-yl-3-[(3R)-pyrrolidin-3-yl]phenyl]pyrazolo[3,4-d]pyrimidin-6-yl]amino]-N,1-dimethyl-cyclopentane-carboxamide]"
24,< 25,"CNC(=O)[C@]1(C)CC[C@@H](Nc2ncc3c(Br)nn(-c4ccc(-c5ncco5)c([C@@H]5CCNC5)c4)c3n2)C1 [(1R,3R)-3-[[3-bromo-1-[4-oxazol-2-yl-3-[(3S)-pyrrolidin-3-yl]phenyl]pyrazolo[3,4-d]pyrimidin-6-yl]amino]-N,1-dimethyl-cyclopentanecarboxamide]"
25,< 25,"CNC(=O)[C@]1(C)CC[C@@H](Nc2ncc3c(Br)nn(-c4cc5c(c(OCC(F)F)c4)N(C)C(=O)CO5)c3n2)C1 [(1R,3R)-3-[[3-bromo-1-[5-(2,2-difluoro-ethoxy)-4-methyl-3-oxo-1,4-benzoxazin-7-yl]pyrazolo[3,4-d]pyrimidin-6-yl]amino]-N,1-dimethyl-cyclopentanecarboxamide]"
26,< 25,"CNC(=O)[C@]1(C)CC[C@@H](Nc2ncc3c(Br)nn(-c4cc(OCCO)c5c(c4)OCC(=O)N5C)c3n2)C1 [(1R,3R)-3-[[3-bromo-1-[5-(2-hydroxyethoxy)-4-methyl-3-oxo-1,4-benzoxazin-7-yl]pyrazolo [3,4-d]pyrimidin-6-yl]amino]-N,1-dimethyl-cyclopentanecarboxamide]"
27,< 25,"CNC(=O)[C@]1(C)CC[C@@H](Nc2ncc3c(Br)nn(-c4cc(OCC#N)c5c(c4)OCC(=O)N5C)c3n2)C1 [(1R,3R)-3-[[3-bromo-1-[5-(cyano-methoxy)-4-methyl-3-oxo-1,4-benzoxazin-7-yl]pyrazolo[3,4-d]pyrimidin-6-yl]amino]-N,1-dimethyl-cyclopentane-carboxamide]"

row,SMILES,IC50 [nM]
1,"CNC(=O)[C@]1(C)CC[C@@H](Nc2ncc3c(Br)nn(-c4ccc(-n5nccn5)cc4)c3n2)C1 [(1R,3R)-3-[[3-bromo-1-[4-(triazol-2-yl)phenyl]pyrazolo[3,4-d]pyrimidin-6-yl]amino]-N,1-dimethyl-cyclopentane-carboxamide]",25 to 200
